This passage reports Ki results from US8796289B2 (AbbVie Inc., priority 2011, dated 2014).

Where only a bound is given, the exact number is not on record here.

GST-tagged-Wee1 kinase, sequence (P30291 whole entry): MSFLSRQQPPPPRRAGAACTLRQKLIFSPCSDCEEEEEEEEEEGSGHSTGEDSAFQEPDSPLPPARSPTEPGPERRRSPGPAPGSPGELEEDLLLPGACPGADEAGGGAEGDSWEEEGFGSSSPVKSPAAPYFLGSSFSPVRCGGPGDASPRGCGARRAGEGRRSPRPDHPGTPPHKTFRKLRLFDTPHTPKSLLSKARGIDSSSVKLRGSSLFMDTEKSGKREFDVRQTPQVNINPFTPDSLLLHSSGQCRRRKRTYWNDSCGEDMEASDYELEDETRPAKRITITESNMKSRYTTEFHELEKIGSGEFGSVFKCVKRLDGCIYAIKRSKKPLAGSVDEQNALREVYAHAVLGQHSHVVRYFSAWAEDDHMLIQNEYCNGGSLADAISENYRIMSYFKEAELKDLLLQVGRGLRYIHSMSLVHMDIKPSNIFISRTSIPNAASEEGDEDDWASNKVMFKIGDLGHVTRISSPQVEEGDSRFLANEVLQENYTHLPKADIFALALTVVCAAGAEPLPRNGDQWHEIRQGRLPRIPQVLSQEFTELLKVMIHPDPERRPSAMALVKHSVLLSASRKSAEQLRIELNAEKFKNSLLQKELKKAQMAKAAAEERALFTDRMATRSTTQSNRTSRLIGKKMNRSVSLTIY

The experiment has as its target GST-tagged-Wee1 kinase (Homo sapiens, UniProt P30291). Description: Wee1 time-resolved fluorescence equilibrium binding assay (displacement of Oregon Green-labeled ATP-competitive kinase probe). The protocol:
Wee1 kinase was assayed using a time-resolved fluorescence equilibrium binding assay monitoring displacement of a rapidly reversible Oregon Green-labeled ATP-competitive kinase probe (N-(2-(2-(2-(4-(4-(5-chloro-4-(2-(1-hydroxycyclobutyl)thiazol-5-yl)-1H-pyrrolo[2,3-b]pyridin-2-yl)phenyl)piperazin-1-yl)ethoxy)ethoxy)ethyl)-2′,7′-difluoro-3′,6′-dihydroxy-3-oxo-3H-spiro[isobenzofuran-1,9′-xanthene]-5-carboxamide) by competitive Wee1 inhibitors.
With `Cc1ccccc1-n1nc(-c2cccs2)c2nc(Nc3ccc(N4CCCC4=O)cc3)ncc2c1=O` [Example 128, 6-(2-methylphenyl)-2-{[4-(2-oxopyrrolidin-1-yl)phenyl]amino}-8-(2-thienyl)pyrimido[4,5-d]pyridazin-5(6H)-one], the affinity, expressed as Ki, was 6 nM.
With `Cc1ccccc1-n1nc(-c2cccs2)c2nc(Nc3ccc(S(=O)(=O)N4CCOCC4)cc3)ncc2c1=O` [Example 129, 6-(2-methylphenyl)-2-{[4-(morpholin-4-ylsulfonyl)phenyl]amino}-8-(2-thienyl)pyrimido[4,5-d]pyridazin-5(6H)-one], the inhibition constant (Ki) (in general, the dissociation constant of the complex between target and ligand, obtained from inhibition or displacement) is more than 3140 nM.
In turn, `Cc1ccccc1-n1nc(-c2cccs2)c2nc(Nc3ccc4c(c3)CN(C)CC43CC3)ncc2c1=O` [Example 130, 2-[(2′-methyl-2′,3′-dihydro-1′H-spiro[cyclopropane-1,4′-isoquinolin]-7′-yl)amino]-6-(2-methylphenyl)-8-(2-thienyl)pyrimido[4,5-d]pyridazin-5(6H)-one] returned a Ki of 0.4 nM.
`CC(C)N1CCN(c2ccc(Nc3ncc4c(=O)n(-c5ccccc5Cl)nc(-c5ccccc5)c4n3)cc2)CC1` [Example 131, 6-(2-chlorophenyl)-2-{[4-(4-isopropylpiperazin-1-yl)phenyl]amino}-8-phenylpyrimido[4,5-d]pyridazin-5(6H)-one] displayed a Ki of 0.5 nM.
`COc1cc(Nc2ncc3c(=O)n(-c4ccccc4C)nc(-c4cccs4)c3n2)ccc1N1CCN(C(C)C)CC1` [Example 132, 2-{[4-(4-isopropylpiperazin-1-yl)-3-methoxyphenyl]amino}-6-(2-methylphenyl)-8-(2-thienyl)pyrimido[4,5-d]pyridazin-5(6H)-one] returned a Ki of 0.7 nM.
Next, `Cc1cc(Nc2ncc3c(=O)n(-c4ccccc4C)nc(-c4ccco4)c3n2)ccc1N1CCN(C(C)C)CC1` [Example 133, 8-(2-furyl)-2-{[4-(4-isopropylpiperazin-1-yl)-3-methylphenyl]amino}-6-(2-methylphenyl)pyrimido[4,5-d]pyridazin-5(6H)-one]: 3 nM; `Cc1ccccc1-n1nc(-c2ccccc2)c2nc(Nc3ccc(N4CCN(C(C)C)CC4)cc3)ncc2c1=O` [Example 134, 2-{[4-(4-isopropylpiperazin-1-yl)phenyl]amino}-6-(2-methylphenyl)-8-phenylpyrimido[4,5-d]pyridazin-5(6H)-one]: 0.6 nM; `Cc1ccccc1-n1nc(-c2ccco2)c2nc(Nc3ccc(N4CCCC4=O)cc3)ncc2c1=O` [Example 135, 8-(2-furyl)-6-(2-methylphenyl)-2-{[4-(2-oxopyrrolidin-1-yl)phenyl]amino}pyrimido[4,5-d]pyridazin-5(6H)-one]: 8 nM.
Regarding `C=CCn1nc(-c2ccco2)c2nc(Nc3ccc(N4CCN(C(C)C)CC4)c(OC)c3)ncc2c1=O` [Example 136, 6-allyl-8-(2-furyl)-2-{[4-(4-isopropylpiperazin-1-yl)-3-methoxyphenyl]amino}pyrimido[4,5-d]pyridazin-5(6H)-one], the Ki was 14 nM.
Next, `C=CCn1nc(-c2ccco2)c2nc(Nc3ccc(CN(C)C)cc3)ncc2c1=O` [Example 137, 6-allyl-2-({4-[(dimethylamino)methyl]phenyl}amino)-8-(2-furyl)pyrimido[4,5-d]pyridazin-5(6H)-one]: 22 nM; `COc1cc(Nc2ncc3c(=O)n(-c4ccccc4C)nc(-c4ccco4)c3n2)ccc1N1CCN(C(C)C)CC1` [Example 138, 8-(2-furyl)-2-{[4-(4-isopropylpiperazin-1-yl)-3-methoxyphenyl]amino}-6-(2-methylphenyl)pyrimido[4,5-d]pyridazin-5(6H)-one]: 1.5 nM.
As to `C=CCn1nc(-c2ccccc2)c2nc(Nc3ccc(N4CCN(C(C)C)CC4)cc3)ncc2c1=O` [Example 139, 6-allyl-2-{[4-(4-isopropylpiperazin-1-yl)phenyl]amino}-8-phenylpyrimido[4,5-d]pyridazin-5(6H)-one], the affinity, expressed as Ki, was 5 nM.
`C=CCn1nc(-c2ccco2)c2nc(Nc3ccc(S(=O)(=O)N4CCOCC4)cc3)ncc2c1=O` [Example 140, 6-allyl-8-(2-furyl)-2-{[4-(morpholin-4-ylsulfonyl)phenyl]amino}pyrimido[4,5-d]pyridazin-5(6H)-one] showed a Ki of more than 3140 nM.
As for `Cc1ccccc1-n1nc(-c2ccccc2)c2nc(Nc3ccc(N4CCCC4=O)cc3)ncc2c1=O` [Example 141, 6-(2-methylphenyl)-2-{[4-(2-oxopyrrolidin-1-yl)phenyl]amino}-8-phenylpyrimido[4,5-d]pyridazin-5(6H)-one], the affinity, expressed as Ki, was 7 nM.
Take `C=CCn1nc(-c2ccccc2)c2nc(Nc3ccc(N4CCCC4=O)cc3)ncc2c1=O` [Example 142, 6-allyl-2-{[4-(2-oxopyrrolidin-1-yl)phenyl]amino}-8-phenylpyrimido[4,5-d]pyridazin-5(6H)-one]: the Ki was 57 nM.
On to `C=CCn1nc(-c2ccccc2)c2nc(Nc3ccc(CN(C)C)cc3)ncc2c1=O` [Example 143, 6-allyl-2-({4-[(dimethylamino)methyl]phenyl}amino)-8-phenylpyrimido[4,5-d]pyridazin-5(6H)-one], for which the Ki was 39 nM.
Next, `C=CCn1nc(-c2ccco2)c2nc(Nc3ccc4c(c3)CN(C)CC43CC3)ncc2c1=O` [Example 144, 6-allyl-8-(2-furyl)-2-[(2′-methyl-2′,3′-dihydro-1′H-spiro[cyclopropane-1,4′-isoquinolin]-7′-yl)amino]pyrimido[4,5-d]pyridazin-5(6H)-one]: 2 nM.
Next, `Cc1ccccc1-n1nc(-c2ccco2)c2nc(Nc3ccc4c(c3)CN(C)CC43CC3)ncc2c1=O` [Example 145, 8-(2-furyl)-2-[(2′-methyl-2′,3′-dihydro-1′H-spiro[cyclopropane-1,4′-isoquinolin]-7′-yl)amino]-6-(2-methylphenyl)pyrimido[4,5-d]pyridazin-5(6H)-one]: 0.3 nM.
Next, `C=CCn1nc(-c2ccco2)c2nc(Nc3ccc(N4CCN(C(C)C)CC4)c(C)c3)ncc2c1=O` [Example 146, 6-allyl-8-(2-furyl)-2-{[4-(4-isopropylpiperazin-1-yl)-3-methylphenyl]amino}pyrimido[4,5-d]pyridazin-5(6H)-one]: 3 nM; `CC(C)N1CCCC(c2nn(-c3c(Cl)cccc3Cl)c(=O)c3cnc(Nc4ccc(N5CCN(C)CC5)cc4)nc23)C1` (centres unmarked) [Example 147, 6-(2,6-dichlorophenyl)-8-(1-isopropylpiperidin-3-yl)-2-{[4-(4-methylpiperazin-1-yl)phenyl]amino}pyrimido[4,5-d]pyridazin-5(6H)-one]: 12 nM.
For `CN1CCN(c2ccc(Nc3ncc4c(=O)n(-c5c(Cl)cccc5Cl)nc(C5CCNCC5)c4n3)cc2)CC1` [Example 148, 6-(2,6-dichlorophenyl)-2-{[4-(4-methylpiperazin-1-yl)phenyl]amino}-8-(piperidin-4-yl)pyrimido[4,5-d]pyridazin-5(6H)-one], the affinity corresponds to a Ki of 16 nM.
Next, `CN1Cc2cc(Nc3ncc4c(=O)n(-c5c(Cl)cccc5Cl)nc(-c5cnn(C)c5)c4n3)ccc2C2(CC2)C1` [Example 149, 6-(2,6-dichlorophenyl)-2-[(2′-methyl-2′,3′-dihydro-1′H-spiro[cyclopropane-1,4′-isoquinolin]-7′-yl)amino]-8-(1-methyl-1H-pyrazol-4-yl)pyrimido[4,5-d]pyridazin-5(6H)-one]: 0.05 nM.
`Cc1cc(Nc2ncc3c(=O)n(-c4c(Cl)cccc4Cl)nc(-c4cnn(C)c4)c3n2)ccc1N1CCCN(C)CC1` [Example 150, 6-(2,6-dichlorophenyl)-2-{[3-methyl-4-(4-methyl-1,4-diazepan-1-yl)phenyl]amino}-8-(1-methyl-1H-pyrazol-4-yl)pyrimido[4,5-d]pyridazin-5(6H)-one] had a Ki of 0.1 nM.
Next, `CN1CCN(c2ccc(Nc3ncc4c(=O)n(-c5c(Cl)cccc5Cl)nc(-c5ccn(C)n5)c4n3)cc2)CC1` [Example 151, 6-(2,6-dichlorophenyl)-2-{[4-(4-methylpiperazin-1-yl)phenyl]amino}-8-(1-methyl-1H-pyrazol-3-yl)pyrimido[4,5-d]pyridazin-5(6H)-one]: 0.07 nM.
`Cc1cc(Nc2ncc3c(=O)n(-c4c(Cl)cccc4Cl)nc(-c4ccn(C)n4)c3n2)ccc1N1CCCN(C)CC1` [Example 152, 6-(2,6-dichlorophenyl)-2-{[3-methyl-4-(4-methyl-1,4-diazepan-1-yl)phenyl]amino}-8-(1-methyl-1H-pyrazol-3-yl)pyrimido[4,5-d]pyridazin-5(6H)-one] yielded a Ki of 0.04 nM.
Take `CN1Cc2cc(Nc3ncc4c(=O)n(-c5c(Cl)cccc5Cl)nc(-c5ccn(C)n5)c4n3)ccc2C2(CC2)C1` [Example 153, 6-(2,6-dichlorophenyl)-2-[(2′-methyl-2′,3′-dihydro-1′H-spiro[cyclopropane-1,4′-isoquinolin]-7′-yl)amino]-8-(1-methyl-1H-pyrazol-3-yl)pyrimido[4,5-d]pyridazin-5(6H)-one]: the affinity corresponds to a Ki of 0.05 nM.
Consider `CN1CCN(c2ccc(Nc3ncc4c(=O)n(-c5ccccc5)nc(-c5ccncc5)c4n3)cc2)CC1` [Example 154, 2-{[4-(4-methylpiperazin-1-yl)phenyl]amino}-6-phenyl-8-(pyridin-4-yl)pyrimido[4,5-d]pyridazin-5(6H)-one], for which affinity was put at a Ki of 9 nM.
The molecule `CN1CCN(c2ccc(Nc3ncc4c(=O)n(-c5ccccc5Cl)nc(-c5ccncc5)c4n3)cc2)CC1` [Example 155, 6-(2-chlorophenyl)-2-{[4-(4-methylpiperazin-1-yl)phenyl]amino}-8-(pyridin-4-yl)pyrimido[4,5-d]pyridazin-5(6H)-one] registered an inhibition constant Ki of 0.4 nM.
With `CN1CCN(c2ccc(Nc3ncc4c(=O)n(-c5c(Cl)cccc5Cl)nc(-c5ccncc5)c4n3)cc2)CC1` [Example 156, 6-(2,6-dichlorophenyl)-2-{[4-(4-methylpiperazin-1-yl)phenyl]amino}-8-(pyridin-4-yl)pyrimido[4,5-d]pyridazin-5(6H)-one], the Ki turned out to be 0.03 nM.
